Test results published in ChEMBL document CHEMBL5291721, “A preclinical secondary pharmacology resource illuminates target-adverse drug reaction associations of marketed drugs” (Nat Commun, 2023).

Assays:
B2 bradykinin receptor = molecular target: T1, B2 bradykinin receptor (Homo sapiens, UniProt P30411)
T1 sequence (P30411 whole entry): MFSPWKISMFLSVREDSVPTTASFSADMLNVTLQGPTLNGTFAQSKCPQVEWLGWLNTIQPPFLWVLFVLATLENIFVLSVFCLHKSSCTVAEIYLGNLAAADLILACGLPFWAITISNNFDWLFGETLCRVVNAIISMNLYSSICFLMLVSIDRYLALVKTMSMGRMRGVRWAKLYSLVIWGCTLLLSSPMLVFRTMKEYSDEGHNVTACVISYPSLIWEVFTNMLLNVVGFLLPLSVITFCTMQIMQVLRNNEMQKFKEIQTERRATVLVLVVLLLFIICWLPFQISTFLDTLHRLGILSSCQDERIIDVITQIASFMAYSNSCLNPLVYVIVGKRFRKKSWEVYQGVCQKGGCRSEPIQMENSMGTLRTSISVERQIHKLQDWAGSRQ

[1] = molecular target: Sodium-dependent serotonin transporter (Homo sapiens, UniProt P31645)
Sodium-dependent serotonin transporter, sequence (P31645 whole entry): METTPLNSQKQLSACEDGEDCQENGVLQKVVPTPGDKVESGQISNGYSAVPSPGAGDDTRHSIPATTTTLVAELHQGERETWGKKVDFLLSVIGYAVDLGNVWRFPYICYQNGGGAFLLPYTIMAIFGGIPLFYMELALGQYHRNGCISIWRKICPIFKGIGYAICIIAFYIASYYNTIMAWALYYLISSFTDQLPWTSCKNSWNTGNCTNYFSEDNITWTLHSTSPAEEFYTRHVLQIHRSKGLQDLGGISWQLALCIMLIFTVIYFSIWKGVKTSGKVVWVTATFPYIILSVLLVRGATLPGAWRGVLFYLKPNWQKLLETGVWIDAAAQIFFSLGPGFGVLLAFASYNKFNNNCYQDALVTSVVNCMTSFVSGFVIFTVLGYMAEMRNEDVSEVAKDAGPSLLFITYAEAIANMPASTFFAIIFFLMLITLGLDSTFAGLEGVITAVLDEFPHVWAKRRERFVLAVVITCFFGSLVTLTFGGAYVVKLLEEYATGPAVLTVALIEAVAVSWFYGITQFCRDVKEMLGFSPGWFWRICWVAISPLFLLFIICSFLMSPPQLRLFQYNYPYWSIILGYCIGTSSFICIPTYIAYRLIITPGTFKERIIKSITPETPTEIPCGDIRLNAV

Vasopressin V2 receptor = Vasopressin V2 receptor (Homo sapiens, UniProt P30518)
Vasopressin V2 receptor, sequence (P30518 whole entry): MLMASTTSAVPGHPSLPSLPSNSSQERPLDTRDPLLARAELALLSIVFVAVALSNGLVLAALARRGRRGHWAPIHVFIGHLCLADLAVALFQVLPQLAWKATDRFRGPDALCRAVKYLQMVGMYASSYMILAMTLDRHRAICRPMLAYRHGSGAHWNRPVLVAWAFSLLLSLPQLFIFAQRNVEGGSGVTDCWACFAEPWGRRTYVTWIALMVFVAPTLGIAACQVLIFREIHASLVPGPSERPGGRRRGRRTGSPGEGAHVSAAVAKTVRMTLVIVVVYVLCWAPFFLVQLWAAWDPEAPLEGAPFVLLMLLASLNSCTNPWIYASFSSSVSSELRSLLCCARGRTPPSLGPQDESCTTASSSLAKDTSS

[2] = molecular target: T2, Alpha-2A adrenergic receptor (Homo sapiens, UniProt P08913); type: functional, cell-based
T2 sequence (P08913 whole entry): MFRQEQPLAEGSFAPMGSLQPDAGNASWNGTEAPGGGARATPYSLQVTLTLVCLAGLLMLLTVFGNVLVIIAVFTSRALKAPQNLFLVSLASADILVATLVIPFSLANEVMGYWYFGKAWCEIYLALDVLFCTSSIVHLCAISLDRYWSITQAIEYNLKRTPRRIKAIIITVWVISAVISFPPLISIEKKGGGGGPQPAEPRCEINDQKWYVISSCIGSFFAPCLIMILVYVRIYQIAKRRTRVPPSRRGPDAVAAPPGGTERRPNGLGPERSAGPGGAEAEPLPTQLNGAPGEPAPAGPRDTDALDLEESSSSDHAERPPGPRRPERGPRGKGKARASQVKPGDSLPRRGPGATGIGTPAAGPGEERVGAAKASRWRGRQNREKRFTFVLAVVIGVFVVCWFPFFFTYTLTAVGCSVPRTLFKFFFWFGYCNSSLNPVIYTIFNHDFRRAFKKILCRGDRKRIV

[3] = molecular target: T3, Alpha-2B adrenergic receptor (Homo sapiens, UniProt P18089)
T3 sequence (P18089 whole entry): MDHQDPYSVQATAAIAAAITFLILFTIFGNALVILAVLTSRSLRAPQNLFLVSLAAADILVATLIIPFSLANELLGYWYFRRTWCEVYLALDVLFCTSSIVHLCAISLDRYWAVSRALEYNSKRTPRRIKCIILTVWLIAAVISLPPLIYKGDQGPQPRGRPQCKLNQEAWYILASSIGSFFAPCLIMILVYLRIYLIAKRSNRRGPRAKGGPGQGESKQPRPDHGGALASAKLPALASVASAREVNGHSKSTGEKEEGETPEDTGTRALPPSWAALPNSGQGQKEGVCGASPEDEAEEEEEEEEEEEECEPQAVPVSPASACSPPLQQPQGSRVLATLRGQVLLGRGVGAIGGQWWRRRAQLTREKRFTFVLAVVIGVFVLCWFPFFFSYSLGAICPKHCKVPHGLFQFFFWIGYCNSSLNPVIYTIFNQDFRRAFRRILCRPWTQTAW

Motilin receptor = Motilin receptor (Homo sapiens, UniProt O43193)
Motilin receptor, sequence (O43193 whole entry): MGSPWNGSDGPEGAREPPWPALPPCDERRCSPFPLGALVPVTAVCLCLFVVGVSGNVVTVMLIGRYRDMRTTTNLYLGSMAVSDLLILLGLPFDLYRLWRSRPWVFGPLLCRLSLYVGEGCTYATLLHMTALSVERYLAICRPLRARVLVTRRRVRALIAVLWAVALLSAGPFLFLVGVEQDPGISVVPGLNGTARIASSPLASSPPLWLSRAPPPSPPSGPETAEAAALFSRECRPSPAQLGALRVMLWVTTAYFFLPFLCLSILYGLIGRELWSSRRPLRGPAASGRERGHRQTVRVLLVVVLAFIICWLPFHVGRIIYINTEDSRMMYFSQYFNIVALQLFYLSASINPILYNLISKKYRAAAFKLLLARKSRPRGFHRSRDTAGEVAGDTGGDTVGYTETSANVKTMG

D(3) dopamine receptor = D(3) dopamine receptor (Homo sapiens, UniProt P35462)
D(3) dopamine receptor, sequence (P35462 whole entry): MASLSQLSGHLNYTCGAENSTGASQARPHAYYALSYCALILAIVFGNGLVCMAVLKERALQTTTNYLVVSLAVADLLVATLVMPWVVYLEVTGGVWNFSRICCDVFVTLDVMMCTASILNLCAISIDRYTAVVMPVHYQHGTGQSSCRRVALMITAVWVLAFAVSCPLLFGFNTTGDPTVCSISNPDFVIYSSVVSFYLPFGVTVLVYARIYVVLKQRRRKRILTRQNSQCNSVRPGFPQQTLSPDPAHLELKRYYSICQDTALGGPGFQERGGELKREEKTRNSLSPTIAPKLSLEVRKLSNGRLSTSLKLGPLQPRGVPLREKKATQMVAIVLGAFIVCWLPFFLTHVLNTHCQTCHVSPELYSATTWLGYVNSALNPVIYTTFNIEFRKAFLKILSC

Mu-type opioid receptor = Mu-type opioid receptor (Homo sapiens, UniProt P35372)
Mu-type opioid receptor, sequence (P35372 whole entry): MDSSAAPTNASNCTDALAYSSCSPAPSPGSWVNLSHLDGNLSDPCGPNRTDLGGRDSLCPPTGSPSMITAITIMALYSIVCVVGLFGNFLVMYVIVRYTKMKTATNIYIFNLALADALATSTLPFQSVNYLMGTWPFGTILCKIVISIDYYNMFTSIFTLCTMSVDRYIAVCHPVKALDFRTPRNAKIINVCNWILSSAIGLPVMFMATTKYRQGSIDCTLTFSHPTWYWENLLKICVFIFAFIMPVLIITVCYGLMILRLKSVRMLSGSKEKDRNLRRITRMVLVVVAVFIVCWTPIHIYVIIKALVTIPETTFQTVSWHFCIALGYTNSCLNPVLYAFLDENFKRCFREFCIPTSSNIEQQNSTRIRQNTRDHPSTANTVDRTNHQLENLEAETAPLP

[4] = molecular target: 5-hydroxytryptamine receptor 2B (Homo sapiens, UniProt P41595); type: functional, cell-based
5-hydroxytryptamine receptor 2B, sequence (P41595 whole entry): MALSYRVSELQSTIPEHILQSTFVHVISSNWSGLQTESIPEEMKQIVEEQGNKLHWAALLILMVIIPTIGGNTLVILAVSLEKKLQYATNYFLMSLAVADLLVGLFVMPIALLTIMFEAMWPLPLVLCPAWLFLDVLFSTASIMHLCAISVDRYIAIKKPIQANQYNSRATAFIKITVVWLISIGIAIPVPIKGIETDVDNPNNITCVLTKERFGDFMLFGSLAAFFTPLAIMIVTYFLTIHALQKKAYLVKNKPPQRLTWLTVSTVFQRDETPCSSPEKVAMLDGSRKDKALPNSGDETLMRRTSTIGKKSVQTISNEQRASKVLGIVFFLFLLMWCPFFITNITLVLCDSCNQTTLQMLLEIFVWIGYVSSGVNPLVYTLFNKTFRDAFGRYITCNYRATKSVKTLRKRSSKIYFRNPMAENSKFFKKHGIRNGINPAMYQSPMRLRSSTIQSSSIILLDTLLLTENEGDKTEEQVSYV

Adenosine receptor A2a = Adenosine receptor A2a (Homo sapiens, UniProt P29274)
Adenosine receptor A2a, sequence (P29274 whole entry): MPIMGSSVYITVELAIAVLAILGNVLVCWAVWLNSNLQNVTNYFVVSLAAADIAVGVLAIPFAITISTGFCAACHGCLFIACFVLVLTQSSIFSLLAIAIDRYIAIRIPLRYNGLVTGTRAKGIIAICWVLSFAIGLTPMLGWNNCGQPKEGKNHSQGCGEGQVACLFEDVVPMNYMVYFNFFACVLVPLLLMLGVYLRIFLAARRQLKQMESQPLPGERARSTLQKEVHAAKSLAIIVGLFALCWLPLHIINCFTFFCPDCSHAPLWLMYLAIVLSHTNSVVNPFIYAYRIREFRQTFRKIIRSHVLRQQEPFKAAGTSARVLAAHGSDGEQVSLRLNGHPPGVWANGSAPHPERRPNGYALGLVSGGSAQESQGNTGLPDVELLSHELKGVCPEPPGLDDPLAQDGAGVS

[5] = molecular target: Gamma-aminobutyric acid receptor subunit alpha-1 (Rattus norvegicus, UniProt P62813); type: functional
Gamma-aminobutyric acid receptor subunit alpha-1, sequence (P62813 whole entry): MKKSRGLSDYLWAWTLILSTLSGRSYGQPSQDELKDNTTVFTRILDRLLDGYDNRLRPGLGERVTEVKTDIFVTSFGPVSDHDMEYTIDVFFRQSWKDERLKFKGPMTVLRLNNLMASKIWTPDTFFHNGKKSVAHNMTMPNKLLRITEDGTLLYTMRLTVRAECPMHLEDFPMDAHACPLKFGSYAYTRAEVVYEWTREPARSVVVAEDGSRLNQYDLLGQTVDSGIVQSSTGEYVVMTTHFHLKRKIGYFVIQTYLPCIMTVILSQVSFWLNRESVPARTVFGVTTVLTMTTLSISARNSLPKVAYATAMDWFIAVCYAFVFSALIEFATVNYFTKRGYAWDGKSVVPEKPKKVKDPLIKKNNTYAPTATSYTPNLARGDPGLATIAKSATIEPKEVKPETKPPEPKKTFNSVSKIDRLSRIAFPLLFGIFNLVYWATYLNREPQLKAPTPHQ

[6] = molecular target: Kappa-type opioid receptor (Homo sapiens, UniProt P41145)
Kappa-type opioid receptor, sequence (P41145 whole entry): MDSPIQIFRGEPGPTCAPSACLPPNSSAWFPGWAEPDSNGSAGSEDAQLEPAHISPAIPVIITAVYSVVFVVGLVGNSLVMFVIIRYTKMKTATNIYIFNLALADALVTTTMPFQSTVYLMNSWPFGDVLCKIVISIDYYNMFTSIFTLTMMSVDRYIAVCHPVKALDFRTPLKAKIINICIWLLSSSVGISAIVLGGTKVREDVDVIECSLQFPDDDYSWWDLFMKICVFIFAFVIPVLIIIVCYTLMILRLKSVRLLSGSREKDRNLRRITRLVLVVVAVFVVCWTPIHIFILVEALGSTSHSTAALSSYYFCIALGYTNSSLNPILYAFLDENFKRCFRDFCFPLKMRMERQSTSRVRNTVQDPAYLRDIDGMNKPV

Estrogen receptor = molecular target: T4, Estrogen receptor (Homo sapiens, UniProt P03372)
T4 sequence (P03372 whole entry): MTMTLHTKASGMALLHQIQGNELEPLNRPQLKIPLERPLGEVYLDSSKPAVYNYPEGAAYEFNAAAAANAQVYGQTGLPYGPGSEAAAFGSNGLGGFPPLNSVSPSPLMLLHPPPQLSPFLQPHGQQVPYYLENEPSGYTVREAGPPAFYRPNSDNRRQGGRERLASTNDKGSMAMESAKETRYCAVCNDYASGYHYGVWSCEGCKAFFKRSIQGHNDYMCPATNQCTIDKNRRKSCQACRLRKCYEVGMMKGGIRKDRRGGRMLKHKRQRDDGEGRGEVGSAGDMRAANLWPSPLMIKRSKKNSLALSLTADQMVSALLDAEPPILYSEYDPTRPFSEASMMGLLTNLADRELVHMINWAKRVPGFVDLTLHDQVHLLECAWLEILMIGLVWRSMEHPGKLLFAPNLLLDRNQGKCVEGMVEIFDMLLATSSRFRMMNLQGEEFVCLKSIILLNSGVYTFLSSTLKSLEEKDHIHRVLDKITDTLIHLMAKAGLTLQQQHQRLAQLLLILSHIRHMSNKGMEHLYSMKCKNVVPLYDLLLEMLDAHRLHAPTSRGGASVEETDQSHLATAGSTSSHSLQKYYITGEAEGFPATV

Cannabinoid receptor 1 = Cannabinoid receptor 1 (Homo sapiens, UniProt P21554); type: functional, cell-based
Cannabinoid receptor 1, sequence (P21554 whole entry): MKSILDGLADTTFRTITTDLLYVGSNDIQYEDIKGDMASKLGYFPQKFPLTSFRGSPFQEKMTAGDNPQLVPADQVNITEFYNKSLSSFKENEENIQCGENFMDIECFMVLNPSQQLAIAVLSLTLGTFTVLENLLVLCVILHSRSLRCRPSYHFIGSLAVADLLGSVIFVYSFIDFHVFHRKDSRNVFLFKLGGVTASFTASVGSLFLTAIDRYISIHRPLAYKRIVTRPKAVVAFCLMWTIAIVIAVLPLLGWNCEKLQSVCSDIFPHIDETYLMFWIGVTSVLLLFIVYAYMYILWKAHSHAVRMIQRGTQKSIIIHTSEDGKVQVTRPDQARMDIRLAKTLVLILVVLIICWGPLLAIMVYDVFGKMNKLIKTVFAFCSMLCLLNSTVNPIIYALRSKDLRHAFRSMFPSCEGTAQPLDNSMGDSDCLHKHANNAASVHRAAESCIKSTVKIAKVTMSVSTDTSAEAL

[7] = molecular target: T5, Gastrin/cholecystokinin type B receptor (Homo sapiens, UniProt P32239)
T5 sequence (P32239 whole entry): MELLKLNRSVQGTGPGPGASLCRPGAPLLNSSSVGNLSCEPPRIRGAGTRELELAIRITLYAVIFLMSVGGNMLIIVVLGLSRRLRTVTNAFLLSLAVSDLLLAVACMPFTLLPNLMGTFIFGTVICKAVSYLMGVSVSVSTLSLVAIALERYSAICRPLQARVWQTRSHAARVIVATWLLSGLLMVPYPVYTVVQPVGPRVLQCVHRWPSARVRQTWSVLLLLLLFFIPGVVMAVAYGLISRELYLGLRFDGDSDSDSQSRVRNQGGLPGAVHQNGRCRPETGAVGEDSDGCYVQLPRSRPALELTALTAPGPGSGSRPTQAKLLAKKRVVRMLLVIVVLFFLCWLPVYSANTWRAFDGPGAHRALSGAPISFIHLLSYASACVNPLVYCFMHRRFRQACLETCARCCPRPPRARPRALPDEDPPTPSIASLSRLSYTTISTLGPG
Further: assay procedure not described here.

Row | Compound | AC50 (B2 bradykinin receptor) [µM] | AC50 [1] [µM] | AC50 (Vasopressin V2 receptor) [µM] | AC50 [2] [µM] | AC50 [3] [µM] | AC50 (Motilin receptor) [µM] | AC50 (D(3) dopamine receptor) [µM] | AC50 (Mu-type opioid receptor) [µM] | AC50 [4] [µM] | AC50 (Adenosine receptor A2a) [µM] | AC50 [5] [µM] | AC50 [6] [µM] | AC50 (Estrogen receptor) [µM] | AC50 (Cannabinoid receptor 1) [µM] | AC50 [7] [µM]
1 | CC(=O)OCC1=C(C(=O)O)N2C(=O)[C@@H](NC(=O)CSc3ccncc3)[C@H]2SC1 [CEPHAPIRIN] | > 10 | > 10 | > 10 | > 10 | > 10 | > 10 | > 30 | > 30 | > 10 | > 10 | > 10 | > 10 | – | – | –
2 | CCCO[C@H]1[C@@H]([C@@H](COCc2ccc(Cl)cc2)OCc2ccc(Cl)cc2)OC(OCC)[C@@H]1O (stereo partly specified) [CLOBENOSIDE] | > 30 | > 30 | > 30 | > 30 | > 30 | > 30 | > 30 | – | > 30 | > 30 | > 30 | 27 | > 10 | > 30 | > 30
3 | CCN1C(=O)NC(c2ccccc2)C1=O (stereo unspecified) [ETHOTOIN] | > 30 | > 30 | > 30 | > 30 | > 30 | > 30 | > 30 | – | > 30 | > 30 | > 30 | > 30 | > 30 | > 30 | > 30
4 | Cc1ccc(S(=O)(=O)NC(=O)N[C@H]2[C@H]3CC[C@@](C)([C@H]2O)C3(C)C)cc1 [GLIBORNURIDE] | > 30 | > 30 | > 30 | > 30 | > 30 | > 30 | > 30 | – | > 30 | > 30 | > 30 | > 30 | > 30 | > 30 | > 30
5 | CCC(=O)O[C@H](CC(=O)O)C[N+](C)(C)C [LEVOCARNITINE PROPIONATE] | > 30 | > 30 | > 30 | > 30 | > 30 | > 30 | > 30 | – | > 30 | > 30 | > 30 | > 30 | > 30 | > 30 | > 30
6 | O=C(O)c1nn(Cc2ccc(Cl)cc2Cl)c2ccccc12 [LONIDAMINE] | > 30 | > 30 | > 30 | > 30 | > 30 | > 30 | > 30 | – | > 30 | > 30 | > 30 | > 30 | > 30 | > 30 | > 30
7 | CS(=O)(=O)NC(=O)CCC/C=C\C[C@H]1C(=O)C[C@@H](O)[C@@H]1/C=C/[C@@H](O)COc1ccccc1 [SULPROSTONE] | > 30 | > 30 | > 30 | > 30 | > 30 | > 30 | > 30 | – | > 30 | > 30 | > 30 | > 30 | > 30 | > 30 | > 30
8 | CCCCOC(=O)C(=O)Nc1cccc(-c2nnn[nH]2)c1 [TAZANOLAST] | > 30 | > 30 | > 30 | > 30 | > 30 | > 30 | > 30 | – | > 30 | > 30 | > 30 | > 30 | > 30 | > 30 | > 30
9 | CCCCC[C@H](O)CC[C@@H]1[C@H]2Cc3cccc(OCC(=O)O)c3C[C@H]2C[C@H]1O [TREPROSTINIL] | > 30 | > 30 | > 30 | > 30 | > 30 | > 30 | > 30 | – | > 30 | > 30 | > 30 | > 30 | > 30 | > 30 | > 30
10 | CC1=C(/C=C/C(C)=C/C=C/C(C)=C/C(=O)Oc2c(C)c(C)c3c(c2C)CCC(C)(CCCC(C)CCCC(C)CCCC(C)C)O3)C(C)(C)CCC1 (stereo unspecified) [TRETINOIN TOCOFERIL] | > 30 | > 30 | > 30 | > 30 | > 30 | > 30 | > 30 | – | > 30 | > 30 | > 30 | > 30 | > 30 | > 30 | > 30
11 | CN(C)CCOCC(=O)NC12CC3CC(CC(C3)C1)C2 [TROMANTADINE] | > 30 | > 30 | > 30 | > 30 | > 30 | > 30 | > 30 | – | > 30 | > 30 | > 30 | 11 | > 30 | > 30 | > 30
12 | CCCCCCCC(=O)CC[C@@H]1[C@@H](C/C=C\CCCC(=O)O)[C@@H](O)C[C@H]1O [UNOPROSTONE] | > 30 | > 30 | > 30 | > 30 | > 30 | > 30 | > 30 | – | > 30 | > 30 | > 30 | > 30 | > 30 | > 30 | > 30
